Read-outs that look alike come from different tables or passages of the source. Where a SMILES comes first, the peptide text is derived from it. Where no end group is shown, it is not given here.
How the values were obtained:
HLA class I molecule [1] = biological target: T1, HLA class I molecule (Homo sapiens, UniProt P04439); assay: HLA class I peptide binding affinity assay (inhibition of 125I-radiolabeled probe peptide binding to purified HLA); conditions: Allele A03.01; read-out: Observed Affinity (IC50; (nM))
T1 construct: made in house; host or cells: EBV-transformed homozygous cell lines, fibroblasts, CIR or 721.22 transfectants; purified from detergent lysates on an anti-HLA antibody column
Protocol: (§1) Epstein-Barr virus (EBV)-transformed homozygous cell lines, fibroblasts, CIR, or 721.22 transfectants are used as sources of HLA class I molecules. […] HLA molecules are purified from lysates by affinity chromatography. The lysates are passed over a column of Sepharose CL-4B beads coupled to an appropriate antibody. […] A 1/25 volume of 2.0 M Tris, pH 6.8, is added to the eluate to reduce the pH to […]. Eluates are then concentrated by centrifugation in Centriprep 30 concentrators (Amicon, Beverly, MA). Protein content is evaluated by a BCA protein assay (Pierce Chemical Co., Rockford, IL) and confirmed by SDS-PAGE.
(§2) Following incubation, MHC-peptide complexes are separated from free peptide by gel filtration on 7.8 mm×15 cm TSK200 columns (TosoHaas 16215, Montgomeryville, PA). Because the large size of the radiolabeled peptide used for the DRB1*1501 (DR2w2(31) assay makes separation of bound from unbound peaks more difficult under these conditions, all DRB1*1501 (DR2w2(31) assays were performed using a 7.8 mm×30 cm TSK2000 column eluted at 0.6 mLs/min. The eluate from the TSK columns is passed through a Beckman 170 radioisotope detector, and radioactivity is plotted and integrated using a Hewlett-Packard 3396A integrator, and the fraction of peptide bound is determined.
(§3) Radiolabeled peptides are iodinated using the chloramine-T method. […] All subsequent inhibition and direct binding assays are performed using these HLA concentrations.
(§4) Since under these conditions [label]<[HLA] and IC50≥[HLA], the measured IC50 values are reasonable approximations of the true KD values. […] For database purposes, and inter-experiment comparisons, relative binding values are compiled. These values can subsequently be converted back into IC50 nM values by dividing the IC50 nM of the positive controls for inhibition by the relative binding of the peptide of interest.
(§5) HLA binding assays were used to evaluate either the affinity of interaction of a given epitope with a selected HLA molecule or the stability.
(§6) The measurements are plotted against the predicted affinity in FIG. 1.

[2] = system: HLA-A02:01+ T cells (CD8+ T cells); assay: Immunogenicity assay: CD8+ T cell expansion with peptide-loaded monocyte-derived dendritic cells, multimer/tetramer staining; assay type: cell-based, human; conditions: HLA-A02:01^+ T cells co-cultured 10 days with peptide-loaded monocyte-derived dendritic cells; initial and validation multimer preparations; shown as examples of positive multimer staining (FIGS. 3-6)
Protocol: Immunogenicity assays are used to test the ability of each test peptide to expand T cells. Mature professional APCs are prepared for these assays in the following way. Monocytes are enriched from healthy human donor PBMCs using a bead-based kit (Miltenyi). Enriched cells are plated in GM-CSF and IL-4 to induce immature DCs. After 5 days, immature DCs are incubated at 37° C. with each peptide for 1 hour before addition of a cytokine maturation cocktail (GM-CSF, IL-1β, IL-4, IL-6, TNFα, PGE1β). Cells are incubated at 37° C. to mature DCs.
After maturation of DCs, PBMCs (either bulk or enriched for T cells) are added to mature dendritic cells with proliferation cytokines. Cultures are monitored for peptide-specific T cells using a combination of functional assays and/or tetramer staining Parallel immunogenicity assays with the modified and parent peptides allowed for comparisons of the relative efficiency with which the peptides expanded peptide-specific T cells.
Tetramer Staining. MHC tetramers are purchased or manufactured on-site, and are used to measure peptide-specific T cell expansion in the immunogenicity assays. For the assessment, tetramer is added to 1×10^5 cells in PBS containing 1% FCS and 0.1% sodium azide (FACS buffer) according to manufacturer's instructions. Cells are incubated in the dark for 20 minutes at room temperature. […] Cells are washed with cold FACS buffer and resuspended in buffer containing 1% formaldehyde. Cells are acquired on a FACS Calibur (Becton Dickinson) instrument, and are analyzed by use of Cellquest software (Becton Dickinson). For analysis of tetramer positive cells, the lymphocyte gate is taken from the forward and side-scatter plots. Data are reported as the percentage of cells that were CD8^+/Tetramer^+.
Immunogenicity assays were carried out to assess whether each peptide can elicit a T cell response by antigen-specific expansion. […] Each positive result was measured with a second multimer preparation to avoid any preparation biases.

HLA Class I molecules = assay: HLA class I binding stability assay (pMHC-I complex dissociation, 125I-labeled β2m, scintillation counts); set-up: species or system human; conditions: allele A02.01; 37° C.
Protocol: These reactions are carried out in streptavidin coated microplates to bind th biotinylated MHC-I heavy chains to the surface and allow measurement of radiolabeled light chain to monitor complex formation. Dissociation is initiated by addition of higher concentations of unlabled light-chain and incubation at 37° C. Stability is defined as the length of time in hours it takes for half of the complexes to dissociate, as measured by scintillation counts

HLA class I molecule [3] = assay: HLA class I peptide binding affinity assay (inhibition of 125I-radiolabeled probe peptide binding to purified HLA); set-up: species or system human; conditions: read-out: Observed Affinity (IC50, (nM))
Protocol: as §1, §2, §3, §4, §5, §6

[4] = system: ovarian carcinoma patients; conditions: ovarian carcinoma patients immunized with poly-ICLC in combination with a NYESO-1 peptide vaccine (in addition to Montanide); phase 1 study; cited from earlier work

T1 sequence (P04439 25-365): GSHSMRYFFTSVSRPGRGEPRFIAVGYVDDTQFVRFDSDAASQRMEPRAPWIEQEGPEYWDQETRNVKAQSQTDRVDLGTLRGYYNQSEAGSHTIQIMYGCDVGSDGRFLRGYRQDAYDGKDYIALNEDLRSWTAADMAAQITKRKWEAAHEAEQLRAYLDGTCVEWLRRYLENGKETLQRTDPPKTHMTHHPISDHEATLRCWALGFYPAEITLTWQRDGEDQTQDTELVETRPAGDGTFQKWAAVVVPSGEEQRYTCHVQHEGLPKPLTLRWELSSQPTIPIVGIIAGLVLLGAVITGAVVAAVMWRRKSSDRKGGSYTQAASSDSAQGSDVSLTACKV
T1 sequence (P61769 21-119 partner): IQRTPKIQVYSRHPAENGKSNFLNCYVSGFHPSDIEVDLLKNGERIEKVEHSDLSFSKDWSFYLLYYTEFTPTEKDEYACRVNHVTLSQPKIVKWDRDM

## CC[C@H](C)[C@H](NC(=O)[C@H](Cc1c[nH]c2ccccc12)NC(=O)[C@H](CS)NC(=O)[C@H](Cc1ccccc1)NC(=O)[C@@H](N)Cc1ccccc1)C(=O)N[C@@H](CC(C)C)C(=O)N[C@@H](CO)C(=O)N[C@@H](CS)C(=O)N[C@@H](CCCCN)C(=O)O (H-FFCWILSCK-OH)
HLA class I molecule [1]
  IC50: 185 nM

## ALNSEALSV [HLA-A02:01]
[2]
  antigen-specific (multimer-double-positive) CD8^+ T cells, multimer staining: antigen-specificity

## LLCVWVSSI [HLA-A02:01]
[2]
  antigen-specific (multimer-double-positive) CD8^+ T cells, multimer staining: antigen-specificity

## SMLTGPPARV [HLA-A02:01]
[2]
  antigen-specific (multimer-double-positive) CD8^+ T cells, multimer staining: antigen-specificity

## YQQQQQSDL
HLA Class I molecules
  Stability (T1/2 (h)): 0.4 h
HLA class I molecule [3]; allele A02.01
  IC50: 799 nM
HLA class I molecule [3]; allele B08.01
  IC50: 18900 nM

## poly-ICLC
[4]
  patients showing induction of CD4+ and CD8+ T cell, as well as antibody responses to the peptide: > 90%

Reference: US20230414735A1, “NEOANTIGENS AND METHODS OF THEIR USE” (priority 2016, published 2023)
